Measurements: patent US20140057829A1, “Citrullinated Histone H3 (Cit H3) in Septic Shock” (THE GENERAL HOSPITAL CORPORATION, priority 2011, published 2014)
“Also recorded” adds a separate entry of the source.

Key:
[1] = system: HL-60 granulocytes; test: Western blots of H3, Ac H3 and Cit H3 in lysates and medium of LPS-stimulated HL-60 granulocytes; assay type: cell-based, human; conditions: 3 h
Description: Neutrophils might be a source of serum histone H3 during sepsis. To test whether histone H3 deimination/citrullination is induced as part of the neutrophil response to bacterial endotoxin, HL-60 cells obtained from American Type Culture Collection (ATCC) were maintained in Iscove's modified DMEM medium (Invitrogen Life Technologies, Carlsbad, Calif.) supplemented with 20% fetal bovine serum (FBS). These cells were grown at 37° C. in a humidified incubator in 5% CO2 and 95% air, and differentiated into granulocytes by culturing the cells in medium containing 1 μM ATRA for 3 days. The ATRA-differentiated HL-60 granulocytes were treated with 4 μM calcium ionophore in medium containing 1.5 mM calcium chloride, and then incubated with LPS (100 ng/ml) in the presence or absence of SAHA (10 μM) over 3 h. Following incubation, medium was collected, and cell lysates were prepared. The medium and the lysates were tested for H3, Ac H3, Cit H3 and actin (internal control) by Western blots. To ensure there was no false positive data that may be produced from the medium with dead cells, the cells were carefully treated and a sham group was also set up as a control.

[2] = system: histone H3 in serum; test: Serum histone H3 by Western blot in LPS-induced septic shock mice treated with or without SAHA; assay type: in vivo; conditions: blood 3 h after LPS
Description: To assure that the data were reliable, independent serum samples were collected and analyzed. As in a previous study (Li et al., Shock. 2009; 32(5): 517-523), male C57B1/6J mice (n=9, 3/group) weighing 25-30 g (purchased from Jackson Labs (Bar Harbor, Me.)) were randomly divided into two groups: LPS control, and SAHA+LPS. Normal saline (10 μl/g body weight) or LPS (20 mg/kg) dissolved in normal saline was injected intraperitoneally. The mice were given DMSO (1 μl/g body weight) or SAHA (50 mg/kg) dissolved in DMSO intraperitoneally 2 hours (h) before, and then soon after injection of LPS. Sham mice (no LPS, no SAHA) were used as the control. Serum separated from these blood samples was saved at −80° C. and used for the current experiment. In the present study, a large dose (35 mg/kg) or a small dose (10 mg/kg) of LPS was administrated intraperitoneally. […] Survival rate was then recorded for over the next 7 days. […]
The samples were analyzed by Western blot with anti-histone H3 antibody. […] The primary antibody was detected by incubation with horseradish peroxidase-coupled second antibody (1:3,000 in PBST with 5% milk) at room temperature for 2 h. […] Films were developed using a standard photographic procedure and quantitative analysis of detected bands was carried out by densitometer scanning using VersaDoc Imaging System (BioRad Laboratories, Hercules, Calif.).

[3] = system: rodent models of LPS-induced septic shock; conditions: rodent models of LPS-induced septic shock (Li et al. 2009, 2010); cited from earlier work
[4] = system: histone H3 in serum; test: iTRAQ screen for serum biomarkers in LPS-induced septic shock and SAHA treatment; assay type: in vivo; conditions: LPS-induced septic shock; 5 h after first SAHA treatment, 3 h after LPS injection
Description: To identify biomarkers of septic shock and treatment, isobaric tag labeling for relative and absolute quantitation (iTRAQ) was performed as described in WO 2010/126635 (which is incorporated herein by reference) in sham (no LPS and no treatment), septic shock (3 h after LPS injection) and SAHA treated (5 h after the first SAHA treatment, and 3 h after LPS injection) animals. Several potential serum biomarkers in LPS-induced septic shock and treatment were found. One of them was histone H3, a chromatin protein in nucleus.

[5] = system: mice; test: Survival of mice after small or large dose of LPS; assay type: in vivo; conditions: for survival rate: 7 day observation
Description: To assure that the data were reliable, independent serum samples were collected and analyzed. As in a previous study (Li et al., Shock. 2009; 32(5): 517-523), male C57B1/6J mice (n=9, 3/group) weighing 25-30 g (purchased from Jackson Labs (Bar Harbor, Me.)) were randomly divided into two groups: LPS control, and SAHA+LPS. Normal saline (10 μl/g body weight) or LPS (20 mg/kg) dissolved in normal saline was injected intraperitoneally. The mice were given DMSO (1 μl/g body weight) or SAHA (50 mg/kg) dissolved in DMSO intraperitoneally 2 hours (h) before, and then soon after injection of LPS. Sham mice (no LPS, no SAHA) were used as the control. Serum separated from these blood samples was saved at −80° C. and used for the current experiment. In the present study, a large dose (35 mg/kg) or a small dose (10 mg/kg) of LPS was administrated intraperitoneally. All animals were housed in plastic cages and had access to chow and water throughout the experiment. The animals were kept at room temperature (24±2° C.) and exposed to alternative cycles of 12 h light and darkness. Survival rate was then recorded for over the next 7 days. Blood was collected from the orbital sinus (as described in Hoff, Lab Animal. 2000; 29(10): 47-53) at 3 h after LPS injection.
It has been reported that the effects of LPS on lethality and protein expression are dose-dependent (Barton and Jackson, Infect Immun. 1993; 61(4): 1496-1499; Haque et al., Pneumon. 2009; 22(2): 143-155). To determine whether serum levels of H3, Cit H3 and acetylated H3 were dependent on the LPS dose, the mice were injected with a small dose ([…]) or a large dose ([…]). The serum levels of all three histone H3 were then measured and correlated to mortality. Mice were randomly divided into three groups (n=10/group): (1) sham group (no LPS), (2) LPS small dose (SD) group, and (3) LPS large dose (LD) group. Blood was collected at 3 h after LPS injection and serum was prepared for immunoblotting.

[6] = system: serum Cit H3 and H3; test: Serum Cit H3, H3 and Ac H3 by Western blot after small or large dose of LPS; assay type: in vivo, mice; conditions: 3 h after injection
Description: The samples were analyzed by Western blot with anti-histone H3 antibody. Western blot analysis was performed as follows. Proteins (about 100 μg per lane) were separated by sodium dodecyl sulphate-polyacrylamide gel electrophoresis (SDS-PAGE) on 15% polyacrylamide gels and transferred onto nitrocellulose membranes (Bio-Rad Laboratories, Hercules, Calif.). The membranes were blocked in 0.05% PBS-Tween (PBST) containing 5% milk (Bio-Rad Laboratories, Hercules, Calif.) and then incubated with the primary antibody at 4° C. overnight. The primary antibody was detected by incubation with horseradish peroxidase-coupled second antibody (1:3,000 in PBST with 5% milk) at room temperature for 2 h. The chemiluminescence detection was performed by using WesternLighting Chemiluminescence Reagent Plus (PerkinElmer LAS, Inc., Boston, Mass.). Films were developed using a standard photographic procedure and quantitative analysis of detected bands was carried out by densitometer scanning using VersaDoc Imaging System (BioRad Laboratories, Hercules, Calif.).
It has been reported that the effects of LPS on lethality and protein expression are dose-dependent (Barton and Jackson, Infect Immun. 1993; 61(4): 1496-1499; Haque et al., Pneumon. 2009; 22(2): 143-155). […] The serum levels of all three histone H3 were then measured and correlated to mortality. […]

[7] = system: TNF-α; test: Serum TNF-α ELISA after small or large dose of LPS; assay type: in vivo, mice; conditions: 3 h after endotoxin insult
Description: There is general agreement that the main pathogenic mediator in lethal septic shock is TNF-α (Beutler and Cerami, Annu Rev Immunol. 7: 625-55, 1989). To determine whether TNF-α can predict lethality of LPS-induced shock as well as Cit H3, blood was collected from sham, LPS (SD), and LPS (LD) groups at 3 h after LPS injection (n=5/group). Quantitative determination of TNF-α in the blood of mice was made using Quantikine Enzyme-Linked Immunosorbent Assay (ELISA) Kit (R&D Systems, Minneapolis, Minn.) according to manufacturer's instruction. The concentration of the cytokine was measured by optical densitometry at 450 nm in a SpectramaxPlus 384 microplate reader (Molecular Devices, Sunnyvale, Calif.). All of the analyses were performed in triplicates.

Compound: O=C(CCCCCCC(=O)Nc1ccccc1)NO [SAHA, suberoylanilide hydroxamic acid]
- Cit H3 in cultured cell medium (secretion) ([1]; SAHA 10 μM + LPS 100 ng/ml): decreases; also recorded: no detectable
- H3 in cultured cell medium ([1]; SAHA 10 μM + LPS 100 ng/ml): no detectable
- acetylated H3 in cell lysates ([1]; SAHA 10 μM + LPS 100 ng/ml): increase
- expression of Cit H3 in cell lysates ([1]; SAHA 10 μM + LPS 100 ng/ml): decreases; also recorded: significantly reduced
- serum histone H3 (Western blot) ([2]; SAHA 50 mg/kg i.p. 2 h before and soon after LPS 20 mg/kg): no histone H3 was detected
- survival [3]: improves survival
- histone H3 in serum (iTRAQ) [4]: decreased histone H3 in serum dramatically

Compound: lipopolysaccharide [LPS]
- Cit H3 in cultured cell medium ([1]; LPS 100 ng/ml): more
- H3 in cultured cell medium ([1]; LPS 100 ng/ml): more
- Cit H3 in cell lysates ([1]; LPS 100 ng/ml, compared to sham): increase
- serum histone H3 (Western blot) ([2]; LPS 20 mg/kg i.p. without SAHA): a histone H3 band was clearly observed
- average survival time ([5]; LPS LD (35 mg/kg i.p.)): about 20 h
- earliest time of death ([5]; LPS LD (35 mg/kg i.p.)): ~16 h
- longest survival time ([5]; LPS LD (35 mg/kg i.p.)): 23 h
- time by which all mice died ([5]; LPS LD (35 mg/kg i.p.)): less than 23 h
- survival rate ([5]; LPS LD (35 mg/kg i.p.)): 0%
- Mice died within 23 h ([5]; LPS LD (35 mg/kg i.p.), n = 10): 10
- average survival time ([5]; LPS SD (10 mg/kg i.p.)): ~146 h
- earliest time of death ([5]; LPS SD (10 mg/kg i.p.)): 27 h
- survival rate ([5]; LPS SD (10 mg/kg i.p.)): 90%
- longest survival time ([5]; LPS SD (10 mg/kg i.p.), 168 h observation): 168 h
- Mice died within 23 h ([5]; LPS SD (10 mg/kg i.p.), n = 10): None
- Mice survived over 168 h ([5]; LPS SD (10 mg/kg i.p.), n = 10): 9
- Serum H3 ([6]; LPS SD (10 mg/kg i.p.)): increase
- serum Ac H3 ([6]; all animals (LPS SD and LD)): No Ac H3 was detected
- serum TNF-α ([7]; LPS LD (35 mg/kg)): 792 pg/mL
- serum TNF-α ([7]; LPS SD (10 mg/kg)): 741 pg/mL
